Experiments:
Type in all cases: cell-based
[1] = system: Polio virus (strain Type 3, WM-3)
[2] = system: SARS corona virus (strain Urbani)
[3] = system: Rift Valley fever virus (strain MP-12)
[4] = system: Tacaribe virus (strain TRVL-11573)

Structure (SMILES)	antiviral activity against Polio virus (in words) [1]	activity against Sars corona virus (in words) [2]	activity against Rift valley fever virus (in words) [3]	activity against Takaribe virus (in words) [4]
C[C@]12CC[C@H](OC(=O)Cc3ccccc3)C[C@@H]1CC[C@@H]1[C@@H]2CC[C@]2(C)C(=NNC(=O)c3cccc([N+](=O)[O-])c3)CC[C@@H]12 [Compound 4, 3 β -Phenylacetoxy-5α-androstan-17-one m-nitrobenzoylhydrazone]	high	weakly active	–	–
C[C@]12CC[C@H](OC(=O)Cc3ccccc3)C[C@@H]1CC[C@@H]1[C@@H]2CC[C@]2(C)C(=NNC(=O)c3cccnc3)CC[C@@H]12 [Compound 5, 3 β-Phenylacetoxy-5α-androstan-17-one Nicotinoylhydrazone]	moderate	weakly active	weakly active	weak activity
CC(=NNc1ccc([N+](=O)[O-])cc1)C1=CC[C@H]2[C@@H]3CC[C@H]4C[C@@H](O)CC[C@]4(C)[C@H]3CC[C@]12C [Compound 12, 5′-preg-16-en-3β-ol-20-one p-nitrophenylhydrazone]	moderate	–	weakly active	–
